We go through 34 compounds from patent publication US20250382277A1, “SMALL MOLECULE INHIBITORS OF DYRK/CLK AND USES THEREOF” (Arizona Board of Regents on Behalf of the University of …, priority 2022, published 2025).

Where a name gives a salt, the structure may show the parent alone. A value given as a limit tells only on which side of the number the result lay.

The target of test [1] is DYRK1A (Homo sapiens, UniProt Q13627). The test is described as follows: biochemical.
Protocol: KDs were obtained from Eurofins. The KdELECT Kinase Assay Panel enables quantitated compound binding affinity against any kinase assay. Inhibitor binding constants (Kd values) are calculated from duplicate 11-point dose-response curves. Measurements are made under optimized conditions that generate true thermodynamic Kd values which facilitate direct comparison of inhibitor affinity across kinases.
Test [2] deals with WNT signaling. The test is described as follows: WNT reporter assay (TopGFP reporter). To be noted: Human Colonic Epithelial Cells (HCEC) with TopGFP reporter, stimulated with 10 μM CHIR99021, 24 hours. The class given is cell-based. An excerpt:
KDs were obtained from Eurofins.

As to `Nc1cc(-c2ccc3ncnc(-c4ccc(N5CCS(=O)(=O)CC5)cc4)c3c2)ccn1` [Compound 6, 4-(4-(6-(2-aminopyridin-4-yl)quinazolin-4-yl)phenyl)thiomorpholine 1,1-dioxide], in test [1], the Kd – broadly, the concentration at which binding is half-saturated – is < 100 nM.

As to `Nc1cc(-c2ccc3ncnc(-c4cnc(N5CCC6(CCNC6=O)CC5)c(F)c4)c3c2)ccn1` [Compound 30, 8-(5-(6-(2-aminopyridin-4-yl)quinazolin-4-yl)-3-fluoropyridin-2-yl)-2,8-diazaspiro[4.5]decan-1-one], in test [2], the EC50 (in general, the concentration that produces a half-maximal response) lay within 100 to 1000 nM. In test [1], the Kd was < 100 nM.

In turn, `Nc1nccc(-c2ccc3ncnc(-c4ccc(N5CCOCC5)c(F)c4)c3c2)n1` [Compound 15, 4-(4-(3-fluoro-4-morpholinophenyl)quinazolin-6-yl)pyrimidin-2-amine] came in with an EC50 in test [2] of 100 to 1000 nM. Besides, the Kd in test [1] is < 100 nM.

`CS(=O)(=O)N1CCN(c2ccc(-c3ncnc4ccc(-c5ccnc(N)c5)cc34)cc2C(F)(F)F)CC1` [Compound 63, 4-(4-(4-(4-(methylsulfonyl)piperazin-1-yl)-3-(trifluoromethyl)phenyl)quinazolin-6-yl)pyridin-2-amine]: the EC50 in test [2] is < 100 nM.

Consider `Cc1cc(-c2ccc3ncnc(-c4ccc(N5CCOCC5)c(F)c4)c3n2)ccn1` [Compound 17, 4-(2-fluoro-4-(6-(2-methylpyridin-4-yl)pyrido[3,2-d]pyrimidin-4-yl)phenyl)morpholine], for which the concentration giving a half-maximal response (EC50) in test [2] is > 1000 nM. Besides, in test [1], the Kd is < 100 nM.

With `Nc1cc(-c2ccc3ncnc(-c4ccc(N5CCN(C6COC6)CC5)cc4)c3c2)ccn1` [Compound 42, 4-(4-(4-(4-(oxetan-3-yl)piperazin-1-yl)phenyl)quinazolin-6-yl)pyridin-2-amine], the EC50 in test [2] is < 100 nM. Besides, in test [1], the Kd is < 100 nM.

Take `Nc1cc(-c2ccc3ncnc(-c4ccnc(N5CCOCC5)c4)c3c2)ccn1` [Compound 14, 4-(4-(2-morpholinopyridin-4-yl)quinazolin-6-yl)pyridin-2-amine]: the EC50 in test [2] is > 1000 nM. Further, in test [1], the Kd was < 100 nM.

For `CC(=O)N1CCN(c2ccc(-c3ccnc4ccc(-c5ccnc(N)c5)cc34)cc2)CC1` [Compound 38, 1-(4-(4-(6-(2-aminopyridin-4-yl)quinolin-4-yl)phenyl)piperazin-1-yl)ethan-1-one], the EC50 in test [2] is < 100 nM. Besides, the Kd in test [1] is < 100 nM.

With `CC(=O)N1CCN(c2ccc(-c3ncnc4ccc(-c5cn[nH]c5)cc34)cc2)CC1` [Compound 37, 1-(4-(4-(6-(1H-pyrazol-4-yl)quinazolin-4-yl)phenyl)piperazin-1-yl)ethan-1-one], the EC50 in test [2] was < 100 nM.

As for `CN1CCN(c2c(F)cc(-c3ncnc4ccc(-c5ccnc(N)c5)cc34)cc2F)CC1` [Compound 31, 4-(4-(3,5-difluoro-4-(4-methylpiperazin-1-yl)phenyl)quinazolin-6-yl)pyridin-2-amine], the EC50 in test [2] fell in the range of 100 to 1000 nM. Further, the Kd in test [1] is < 100 nM.

For `[2H]C([2H])([2H])N1CCN(c2ccc(-c3ncnc4ccc(-c5ccnc(N)c5)cc34)cc2F)CC1` [Compound 51, 4-(4-(3-fluoro-4-(4-(methyl-d3)piperazin-1-yl)phenyl)quinazolin-6-yl)pyridin-2-amine], the EC50 in test [2] was < 100 nM. For the same compound, the Kd in test [1] is < 100 nM.

`Nc1cc(-c2ccc3ncnc(-c4ccc(N5CCOCC5)c(F)c4)c3c2)ccn1` [Compound 1, 4-(4-(3-fluoro-4-morpholinophenyl)quinazolin-6-yl)pyridin-2-amine] had a concentration for a half-maximal effect (EC50) in test [2] of 100 to 1000 nM. Moreover, the Kd in test [1] was < 100 nM.

In the case of `Nc1cc(-c2ccc3ncnc(-c4cccc(CN5CCOCC5)c4)c3c2)ccn1` [Compound 8, 4-(4-(3-(morpholinomethyl)phenyl)quinazolin-6-yl)pyridin-2-amine], the EC50 in test [2] is > 1000 nM. Besides, the Kd in test [1] was < 100 nM.

`CC(C)(C)N1CCN(c2ccc(-c3ncnc4ccc(-c5ccnc(N)c5)cc34)cc2F)CC1` [Compound 45, 4-(4-(4-(4-(tert-butyl)piperazin-1-yl)-3-fluorophenyl)quinazolin-6-yl)pyridin-2-amine] came in with an EC50 in test [2] of 100 to 1000 nM. Further, in test [1], the Kd is < 100 nM.

Regarding `Nc1cc(-c2ccc3ncnc(-c4ccc(N5CC6(COC6)C5)c(F)c4)c3c2)ccn1` [Compound 28, 4-(4-(3-fluoro-4-(2-oxa-6-azaspiro[3.3]heptan-6-yl)phenyl)quinazolin-6-yl)pyridin-2-amine], the EC50 in test [2] lay within 100 to 1000 nM. For the same compound, the Kd in test [1] was < 100 nM.

For `Nc1cc(-c2ccc3ncnc(-c4ccc(N5CCN(C(=O)C6CC6)CC5)c(F)c4)c3c2)ccn1` [Compound 53, (4-(4-(6-(2-aminopyridin-4-yl)quinazolin-4-yl)-2-fluorophenyl)piperazin-1-yl)(cyclopropyl)methanone], the EC50 in test [2] is < 100 nM. Further, the Kd in test [1] was < 100 nM.

Regarding `CN1CCN(c2ccc(-c3ncnc4ccc(-c5ccnc(N)c5)cc34)cc2Cl)CC1` [Compound 62, 4-(4-(3-chloro-4-(4-methylpiperazin-1-yl)phenyl)quinazolin-6-yl)pyridin-2-amine], the EC50 in test [2] is < 100 nM.

Regarding `Nc1cc(-c2ccc3ncnc(-c4ccc(N5CCNCC5)c(F)c4)c3c2)ccn1` [Compound 35, 4-(4-(3-fluoro-4-(piperazin-1-yl)phenyl)quinazolin-6-yl)pyridin-2-amine], the EC50 in test [2] lay in the range of 100 to 1000 nM. In test [1], the Kd is < 100 nM.

In test [2], `Nc1cc(-c2ccc3ncnc(-c4cnc(N5CCC6(CCOC6)CC5)c(F)c4)c3c2)ccn1` [Compound 23, 4-(4-(5-fluoro-6-(2-oxa-8-azaspiro[4.5]decan-8-yl)pyridin-3-yl)quinazolin-6-yl)pyridin-2-amine hydrochloride] yielded an EC50 of 100 to 1000 nM. Further, in test [1], the Kd was < 100 nM.

`Nc1cc(-c2ccc3ncnc(-c4ccc(N5CCN(C6CCOCC6)CC5)c(F)c4)c3c2)ccn1` [Compound 55, 4-(4-(3-fluoro-4-(4-(tetrahydro-2H-pyran-4-yl)piperazin-1-yl)phenyl)quinazolin-6-yl)pyridin-2-amine]: the EC50 in test [2] was < 100 nM. Besides, the Kd in test [1] is < 100 nM.

For the compound `CC(C)CN1CCN(c2ccc(-c3ncnc4ccc(-c5ccnc(N)c5)cc34)cc2F)CC1` [Compound 48, 4-(4-(3-fluoro-4-(4-isobutylpiperazin-1-yl)phenyl)quinazolin-6-yl)pyridin-2-amine], in test [2], the EC50 was < 100 nM. For the same compound, in test [1], the Kd is < 100 nM.

`CS(=O)(=O)N1CCN(c2ccc(-c3ncnc4ccc(-c5ccnc(N)c5)cc34)cc2F)CC1` [Compound 47, 4-(4-(3-fluoro-4-(4-(methylsulfonyl)piperazin-1-yl)phenyl)quinazolin-6-yl)pyridin-2-amine]: in test [2], the EC50 is < 100 nM. Further, the Kd in test [1] was < 100 nM.

Take `CN1[C@@H]2CC[C@H]1CN(c1ccc(-c3ncnc4ccc(-c5ccnc(N)c5)cc34)cc1F)C2` [Compound 43, 4-(4-(3-fluoro-4-((1R,5S)-8-methyl-3,8-diazabicyclo[3.2.1]octan-3-yl)phenyl)quinazolin-6-yl)pyridin-2-amine]: the concentration for a half-maximal effect (EC50) in test [2] is 100 to 1000 nM. Further, the Kd in test [1] is < 100 nM.

Regarding `Nc1cc(-c2ccc3ncnc(-c4ccc(N5CC6(C5)CN(C5COC5)C6)c(F)c4)c3c2)ccn1` [Compound 57, 4-(4-(3-fluoro-4-(6-(oxetan-3-yl)-2,6-diazaspiro[3.3]heptan-2-yl)phenyl)quinazolin-6-yl)pyridin-2-amine], the EC50 in test [2] lay in the range of 100 to 1000 nM.

For `CN[C@H]1CCN(c2ccc(-c3ncnc4ccc(-c5ccnc(N)c5)cc34)cc2F)C1` [Compound 60, (S)-4-(4-(3-fluoro-4-(3-(methylamino)pyrrolidin-1-yl)phenyl)quinazolin-6-yl)pyridin-2-amine], in test [2], the EC50 was > 1000 nM.

Consider `CS(=O)(=O)N1CCN(c2ccc(-c3ncnc4ccc(-c5ccnc(N)c5)cc34)cc2Cl)CC1` [Compound 59, 4-(4-(3-chloro-4-(4-(methylsulfonyl)piperazin-1-yl)phenyl)quinazolin-6-yl)pyridin-2-amine], for which the EC50 in test [2] was < 100 nM.

Take `Nc1cc(-c2ccc3ncnc(-c4ccc(N5CCOCC5)nc4)c3c2)ccn1` [Compound 10, 4-(4-(6-morpholinopyridin-3-yl)quinazolin-6-yl)pyridin-2-amine]: in test [1], the Kd is < 100 nM.

Take `CN1CCN(c2ccc(-c3ncnc4ccc(-c5ccnc(N)c5)cc34)cc2)CC1` [Compound 7, 4-(4-(4-(4-methylpiperazin-1-yl)phenyl)quinazolin-6-yl)pyridin-2-amine]: the Kd in test [1] was < 100 nM.

For the compound `Nc1cc(-c2ccc3ncnc(-c4cc(F)cc(N5CCOCC5)c4)c3c2)ccn1` [Compound 5, 4-(4-(3-fluoro-5-morpholinophenyl)quinazolin-6-yl)pyridin-2-amine], the Kd in test [1] is < 100 nM.

`CC(=O)N1CC2(C1)CN(c1ccc(-c3ncnc4ccc(-c5ccnc(N)c5)cc34)cc1F)C2` [Compound 58, 1-(6-(4-(6-(2-aminopyridin-4-yl)quinazolin-4-yl)-2-fluorophenyl)-2,6-diazaspiro[3.3]heptan-2-yl)ethan-1-one]: the EC50 in test [2] was < 100 nM.

Turning to `Nc1cc(-c2ccc3ncnc(-c4ccc(CN5CCOCC5)cc4)c3c2)ccn1` [Compound 18, 4-(4-(4-(morpholinomethyl)phenyl)quinazolin-6-yl)pyridin-2-amine], the Kd in test [1] was > 1000 nM.

As to `Nc1cc(-c2ccc3ncnc(-c4ccc(N5CCN(CC6COC6)CC5)c(F)c4)c3c2)ccn1` [Compound 64, 4-(4-(3-fluoro-4-(4-(oxetan-3-ylmethyl)piperazin-1-yl)phenyl)quinazolin-6-yl)pyridin-2-amine], in test [2], the EC50 is < 100 nM.

For the compound `Cc1cc(-c2ncnc3ccc(-c4ccnc(N)c4)cc23)ccc1N1CCN(C)CC1` [Compound 61, 4-(4-(3-methyl-4-(4-methylpiperazin-1-yl)phenyl)quinazolin-6-yl)pyridin-2-amine], in test [2], the EC50 lay within 100 to 1000 nM.

`Nc1cc(-c2ccc3nccc(-c4cnc(N5CCOCC5)c(F)c4)c3c2)ccn1` [Compound 13, 4-(4-(5-fluoro-6-morpholinopyridin-3-yl)quinolin-6-yl)pyridin-2-amine] yielded an EC50 in test [2] of 100 to 1000 nM.
